From patent US10766914B2, “DNA alkylating agents” (OBI PHARMA, INC., priority 2015, dated 2020)

Tests used:
LNCap = test: TH2870 sensitivity in prostate cancer cell lines; type: cell-based; conditions: Homo sapiens
LIXC-002 = test: TH2870 sensitivity in liver cancer cells; type: cell-based, human; conditions: AKR1C3 expression +++
H460 NSCLC xenograft = test: Example 4-I antitumor efficacy, ectopic H460 NSCLC xenograft model; type: in vivo, female nude mice (nu/nu); conditions: iv, Q7D × 3; for TGD500, Days (vs. vehicle) / TGD1000, Days (vs. vehicle): H460; for TGI: H460, 250 mm3 tumors on day 1
Text: Specific pathogen-free homozygous female nude mice (nu/nu, Charles River Laboratories) were used. Mice were given food and water ad libitum and housed in microisolator cages. Four to six week old animals were identified by microchips (Locus Technology, Manchester, Md., USA) at the time of the experiments. All animal studies were approved by the Institutional Animal Care and Use Committee at Threshold Pharmaceuticals, Inc.
All cell lines were from the American Type Culture Collection (ATCC, Rockville, Md., USA).
Cells were mixed with Matrigel (50% with exception for 30% in the H460) and 0.2 ml per mouse were subcutaneously implanted to the flank area of the animals. When tumor size reached 100-150 250 mm3, mice were randomized into experimental or vehicle groups with 10 mice/group and treatment was started (Day 1). The tested compounds were formulated in 5% DMSO in D5W. The regimens employed in the examples include IP, QD×5/wk (5 days on, 2 days off) as one cycle, for a total of 2 cycles; IP, once; IP, weekly for total 3 weeks; and IV, weekly for 3 weeks. Tumor growth and body weight were measured twice a week. Tumor volume was calculated as (length×width2)/2. Drug efficacy was assessed as Tumor Growth Inhibition (TGI) and Tumor Growth Delay (TGD). TGI was defined as (1−ΔT/ΔC)×100, where ΔT/ΔC presented the ratio of the change in mean (or median, if variation within the group was relatively large) tumor volume of the treated group and of the control group. TGD was calculated as the extra days for the treated tumor to reach 500 mm3 or 1000 mm3 as compared to the control group. Animals were culled when individual tumor size reached over 2000 mm3 or mean tumor volume exceeded 1000 mm3 in the group. Data are expressed as the mean±SEM. One-way analysis of variance with Dunnett post comparison test (GraphPad Prism 4) or two-tailed student's t-test were used for analysis. A P level <0.05 was considered statistically significant.
The compound TH-2870 was tested in a H460 model. The compound was dosed follows. 1.5, 5 or 15 mg/kg, IV, weekly for 3 weeks at 250 mm^3 tumors on day 1 (10 animals per group average tumor volume), comparing with docetaxel. The antitumor effects and the safety of administration are graphically illustrated below.

[1] = Pharmacokinetics of TH2870 in CD-1 mice, single IV bolus and single IP dose; conditions: mouse, in vivo
Method: The pharmacokinetics of TH2870 in CD-1 mice following a single intravenous bolus dose (5 mg/kg) and a single intraperitoneal dose (10 mg/kg) were determined.

LIXC-086 = test: TH2870 sensitivity in liver cancer cells; type: cell-based, human; conditions: AKR1C3 expression ++++
MDA-Pca-2b = test: TH2870 sensitivity in prostate cancer cell lines; type: cell-based; conditions: Homo sapiens
LIXC-004 = test: TH2870 sensitivity in liver cancer cells; type: cell-based, human; conditions: AKR1C3 expression +++
H460 cells = test: Proliferation assay in H460 cells (2 hr exposure, AlamarBlue); type: cell-based, human; conditions: Homo sapiens, NCI-H460, 2 hrs exposure, wash, 70 hrs growth, read-out: IC 50 in proliferation assay in H460 cells
Summary of the method: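 H460 cells seeded at 4×10^3/well, grown 24 h, then exposed to compound for 2 h at 37 °C. Drug was washed off and cells were regrown 70 h in fresh medium. Viable cells were read by AlamarBlue, and IC50 was taken as the concentration giving 50% growth inhibition.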

LIC-0903 = test: TH2870 sensitivity in liver cancer cells; type: cell-based, human; conditions: AKR1C3 expression ++++
Hep G2 = test: TH2870 sensitivity in liver cancer cells; type: cell-based, human
[2] = Homo sapiens, read-out: RelIC50

SMILES: CC(OP(=O)(N1CC1)N1CC1)c1ccc([N+](=O)[O-])c(Oc2cccc(C(=O)N(C)C)c2)c1 (centres unmarked) [Compound 2870]
- IC50 (LNCap): 162 nM
- Max Inhibition % (LIXC-002): 99.1%
- IC50 (LIXC-002; [2]): 56 nM
- TGD500, Days (vs. vehicle) (H460 NSCLC xenograft; 1.5 mg/kg): 18 days
- TGD1000, Days (vs. vehicle) (H460 NSCLC xenograft; 1.5 mg/kg): 18 days
- TGI (H460 NSCLC xenograft; 1.5 mg/kg): 100.0%
- TGD500, Days (vs. vehicle) (H460 NSCLC xenograft; 5 mg/kg): 36 days
- TGD1000, Days (vs. vehicle) (H460 NSCLC xenograft; 5 mg/kg): 38 days
- TGI (H460 NSCLC xenograft; 5 mg/kg): 121.3%
- TGD500, Days (vs. vehicle) (H460 NSCLC xenograft; 15 mg/kg): 49 days
- TGD1000, Days (vs. vehicle) (H460 NSCLC xenograft; 15 mg/kg): 50 days
- TGI (H460 NSCLC xenograft; 15 mg/kg): 121.6%
- AUC ([1]; IP 10 mg/kg): 725 ng·h/mL
- Cmax ([1]; IP 10 mg/kg): 4020 ng/mL
- Tmax ([1]; IP 10 mg/kg): 5 min
- half-life ([1]; IP 10 mg/kg): 9 min
- AUC ([1]; IV bolus 5 mg/kg): 963 ng·h/mL
- Cmax ([1]; IV bolus 5 mg/kg): 6790 ng/mL
- Tmax ([1]; IV bolus 5 mg/kg): 2 min
- clearance ([1]; IV bolus 5 mg/kg): 86.5 mL/min/kg
- half-life ([1]; IV bolus 5 mg/kg): 6.56 min
- Vd ([1]; IV bolus 5 mg/kg, read-out: Vss): 0.668 L/kg
- Max Inhibition % (LIXC-086): 92.8%
- IC50 (LIXC-086; [2]): 41 nM
- IC50 (MDA-Pca-2b): > 300 nM
- Max Inhibition % (LIXC-004): 83.6%
- IC50 (LIXC-004; [2]): 31.3 nM
- IC50 (H460 cells): 0.4 nM
- Max Inhibition % (LIC-0903): 96.3%
- IC50 (LIC-0903; [2]): 81.9 nM
- Max Inhibition % (Hep G2; AKR1C3 expression ++++): 98.9%
- IC50 (Hep G2; Homo sapiens, HepG2, AKR1C3 expression ++++, read-out: RelIC50): 5.5 nM
